This note sets out measurements from publication PMC12040169 (PLOS Biology, 2025).

The data set is described as follows: in vitro. The conditions noted are these: human, hela cells, % viability.

Regarding `CCCc1nn(CC(=O)N2CCCC2)c(=O)c2cc3ccsc3n12` [CBK284145], the viability at 28.5 h, 10 µM amounted to 85.5%.
With `CCCc1nn(CC(=O)NC(C)(C)C)c(=O)c2cc3ccsc3n12` [CBK284148] the figure was 83.7%; with `C=CCn1c2cc(C)sc2c2cnn(CC(=O)NC3CC3)c(=O)c21` [CBK284149], 86.1%; with `C=CCn1c2cc(C)sc2c2cnn(CC(=O)NC(C)C)c(=O)c21` [CBK284150], 89%.
For `CCn1c2cc(C)sc2c2cnn(CC(=O)NC(C)(C)C)c(=O)c21` [CBK284152] the value was 92.5%; for `Cc1cc2c(s1)c1cnn(Cc3cccnc3)c(=O)c1n2C` [CBK284154], 79.1%; for `Cc1cc2c(s1)c1cnn(CC(=O)NC(C)C)c(=O)c1n2C` [CBK284155], 79.7%.
With `CCN(CC)C(=O)Cn1ncc2c3sc(C)cc3n(C)c2c1=O` [CBK284156] the figure was 92.9%; with `O=C(c1nccs1)C1CCN(C(=O)c2cccs2)CC1` [CBK284159], 106%.
As for `O=C(c1nccs1)C1CCN(C(=O)Cc2ccc(Cl)cc2)CC1` [CBK284160], the viability at 28.5 h, 10 µM stood at 84.1%.
With `O=C(c1nccs1)C1CCN(C(=O)Cc2ccccc2Cl)CC1` [CBK284162] the figure was 87.4%; with `C=CCn1c2cc(C)sc2c2cnn(CC(=O)OC)c(=O)c21` [CBK284166], 89.3%.
`CCN(CC)C(=O)Cn1ncc2c3sc(C)cc3n(CC)c2c1=O` [CBK284167]: the viability at 28.5 h, 10 µM is 99.3%.
Turning to `CCn1c2cc(C)sc2c2cnn(Cc3cccnc3)c(=O)c21` [CBK284169], the viability at 28.5 h, 10 µM was 86.6%.
With `CCn1c2cc(C)sc2c2cnn(CC(=O)NC(C)C)c(=O)c21` [CBK284172] the figure was 85.8%; with `CCn1c2cc(C)sc2c2cnn(CC(=O)N(C)C)c(=O)c21` [CBK284173], 85%; with `O=C(c1nccs1)C1CCN(C(=O)c2ccccc2F)CC1` [CBK284174], 93.3%.
With `CC(C)(C)C(=O)N1CCC(n2nc(-c3cccs3)ccc2=O)CC1` [CBK284182] the figure was 92.9%; with `CCc1nn(CC(=O)NC(C)(C)C)c(=O)c2cc3ccsc3n12` [CBK284183], 105%.
With `Cc1cc2nccc(C3CCCN(C(=O)c4ccccc4F)C3)n2n1` (centres unmarked) [CBK284184] the figure was 97.2%; with `CCOC(=O)Cn1ncc2c3sc(C)cc3n(CC)c2c1=O` [CBK284185], 87.1%; with `Cc1cc2c(s1)c1cnn(CC(=O)N3CCCCC3)c(=O)c1n2C` [CBK284187], 82.3%.
Turning to `Cc1cc2c(s1)c1cnn(Cc3ccncc3)c(=O)c1n2C` [CBK284188], the viability at 28.5 h, 10 µM came out at 86.4%.
With `CC1CCN(C(=O)Cn2ncn3c(cc4ccsc43)c2=O)CC1` [CBK284190] the figure was 101%.
For `CC1CCCC(C)N1C(=O)Cn1ncn2c(cc3ccsc32)c1=O` (centres unmarked) [CBK284191] the value was 110%; for `CCCc1nn(CC(=O)N(CC)CC)c(=O)c2cc3ccsc3n12` [CBK284192], 81.3%; for `CCCc1nn(CC(=O)NC2CCC2)c(=O)c2cc3ccsc3n12` [CBK284194], 89.1%.
With `O=C(Cn1ncn2c(cc3ccsc32)c1=O)N1CCCCC1` [CBK284195] the figure was 85.2%.
Turning to `CC1CCCCC1NC(=O)Cn1ncn2c(cc3ccsc32)c1=O` (centres unmarked) [CBK284196], the viability at 28.5 h, 10 µM turned out to be 91.8%.
Turning to `O=C(Cn1ncn2c(cc3ccsc32)c1=O)NCc1cccs1` [CBK284197], the viability at 28.5 h, 10 µM was 90.3%.
With `CC1CCCCN1C(=O)Cn1ncn2c(cc3ccsc32)c1=O` (centres unmarked) [CBK284201] the figure was 92.1%; with `O=c1ccc(-c2ccccc2)nn1CC1CCNCC1` [CBK284203], 98.6%; with `COC(=O)CN1N=C(C(C)(C)C)Cn2c(cc3ccccc32)C1=O` [CBK284204], 95.5%.
For `O=C(c1nccs1)C1CCN(C(=O)CC2CCCC2)CC1` [CBK284207], the viability at 28.5 h, 10 µM was determined as 107%.
For `C#CCN1N=C(c2ccc(OC)cc2)Cn2c(cc3sccc32)C1=O` [CBK284209] the value was 91.2%.
For `CC(C)(C)C(=O)N1CCC(c2[nH]ncc2-c2ccncc2)CC1` [CBK284211] the value was 88.2%; for `O=C(C1CC=CCC1)N1CCC(c2[nH]ncc2-c2ccncc2)CC1` (centres unmarked) [CBK284212], 84%; for `CCn1c2cc(C)oc2c2cnn(CC(=O)N3CCCCC3)c(=O)c21` [CBK284220], 90.2%.
As for `Cc1cc2c(s1)c1cnn(CC(=O)NCC3CC3)c(=O)c1n2C` [CBK284222], the viability at 28.5 h, 10 µM was found to be 91.2%.
For `C#CCn1ncc2c3sc(C)cc3n(CC)c2c1=O` [CBK284225] the value was 89.5%.
For `CCc1nn2c(C3CCNCC3)ccnc2c1-c1cccs1` [CBK284226] the value was 80.4%; for `Cc1cc2c(s1)c1cnn(Cc3ccccn3)c(=O)c1n2C` [CBK284227], 65.4%; for `Cc1cc2c(o1)c1cnn(CC(=O)N3CCCC3)c(=O)c1n2C(C)C` [CBK284232], 89%.
For `O=C(c1nc2ccccc2s1)C1CCN(C(=O)c2ccco2)CC1` [CBK284234] the value was 83.6%; for `O=c1[nH]nc2c3c4c(sc3ncn12)CCCC4` [CBK284235], 56.8%; for `Cc1cc2c(o1)c1cnn(CC(=O)N3CCC(C)CC3)c(=O)c1n2C` [CBK284236], 83.9%.
`CC(C)C(=O)N1CCC(c2[nH]ncc2-c2ccncc2)CC1` [CBK284237]: the viability at 28.5 h, 10 µM turned out to be 79.6%.
As to `O=C(C1CCCCC1)N1CCC(n2nc(C3CC3)ccc2=O)CC1` [CBK284240], the viability at 28.5 h, 10 µM turned out to be 90.7%.
As to `CC(C)(C)C(=O)N1CCC(n2nc(C3CC3)ccc2=O)CC1` [CBK284242], the viability at 28.5 h, 10 µM was 84.6%.
With `CC(C)C(=O)N1CCC(n2nc(-c3ccco3)ccc2=O)CC1` [CBK284244] the figure was 83.8%.
For `CC(=O)N1CCC[C@H]1Cn1nc(-c2cccs2)ccc1=O` [CBK284249] the value was 78.1%.
For `O=C(C1CC1)N1CCC[C@H]1Cn1nc(-c2ccc(F)cc2)ccc1=O` [CBK284252] the value was 79.8%.
For the molecule `COc1cccc(CN2CCN(C(=O)c3cc(C)[nH]c3C)[C@@H](C)C2)c1` [CBK284255], the viability at 28.5 h, 10 µM came to 99.1%.
Take `COC(=O)[C@H]1CCc2ccccc2N1C(C)=O` [CBK284256]: the viability at 28.5 h, 10 µM came out at 90.2%.
For `COC(=O)[C@H]1CCc2ccccc2N1C(=O)c1ccco1` [CBK284259] the value was 84.5%; for `Cc1ncsc1C(=O)N1CCC[C@H](C(=O)c2cccs2)C1` [CBK284260], 80.2%; for `COc1cccc(CN2CCN(Cc3ccco3)[C@@H](C)C2)c1` [CBK284265], 80.3%.
For `COc1cccc(CN2CCN(C(=O)N3CCCCC3)[C@@H](C)C2)c1` [CBK284266] the value was 95%.
Turning to `CCN(CC)C(=O)N1CCN(Cc2cccc(OC)c2)C[C@@H]1C` [CBK284268], the viability at 28.5 h, 10 µM is 78.8%.

Broadly, the viability is a read-out of living cells in per cent, often relative to untreated cells.
